The source of these data is US20150353495A1 (PORTOLA PHARMACEUTICALS, INC., priority 2010, published 2015).

Assay [1] concerns markers of allogeneic response (interferon gamma). As to conditions: kidney allograft patients; cited from earlier work.
Assay [2] addresses T1, full length active recombinant SYK enzyme (Homo sapiens, UniProt P43405).
T1 construct: full length active recombinant SYK enzyme (Millipore, Calif.); purchased Millipore
Description: Inhibition of Syk tyrosine phosphorylation activity (LANCE TR-FRET). The class given is biochemical. An excerpt: This example illustrates methods for evaluating the compounds of the invention, along with results obtained for such assays. The in vitro and in vivo human Syk activities of the inventive compounds can be determined by various procedures known in the art, such as a test for their ability to inhibit the activity of human plasma Syk. […] The IC50 value is the concentration (in nM) of the compound required to provide 50% inhibition of human Syk proteolytic activity.
An in vitro assay for detecting and measuring inhibition activity against Syk is as follows:
Inhibition of Syk Tyrosine Phosphorylation Activity
Potency of candidate molecules for inhibiting Syk tyrosine phosphorylation activity is assessed by measuring the ability of a test compound to inhibit Syk-mediated tyrosine phosphorylation of a Syk-specific substrate.
SYK tyrosine phosphorylation activity is measured using the LANCE™ Technology developed by Perkin Elmer Life and Analytical Sciences (Boston, Mass.). LANCE™ refers to homogeneous time resolved fluorometry applications using techniques such as time-resolved fluorescence resonance energy transfer assay (TR-FRET) (see generally for procedures in Perkin Elmer Application Note-How to Optimize a Tyrosine Kinase Assay Using Time Resolved Fluorescence-Based LANCE Detection, wwww.perkinelmer.com/lifesciences). The assay principle involves detection of a phosphorylated substrate using energy transfer from a phosphospecific europium-labeled antibody to streptavidin-allophycocyanin as an acceptor.
To test the ability of candidate molecules to inhibit SYK tyrosine phosphorylation activity, molecules are reconstituted in 30% DMSO and serially diluted 1:3 with the final dilution containing DMSO in the absence of the candidate molecule. The final DMSO concentration in the assay is 3%. Kinase assays are performed as a two part reaction. The first reaction is a kinase reaction and which comprises of a candidate molecule, full length active recombinant SYK enzyme (Millipore, Calif.) and biotin-labeled SYK-specific substrate biotin-[…]-OH. The second reaction involves termination of the kinase reaction and the simultaneous addition of the detection reagents-europium-labeled anti-phosphotyrosine reagent (Eu-W1024-PY100, Perkin Elmer, Boston, Mass.) and Streptavidin-Allophycocyanin detection reagent (SA-APC, Prozyme, CA). The kinase reaction is performed in a black U-bottom 96-well microtitre plate. The final reaction volume is 50 μL and contains a final concentration of 1 nM active SYK enzyme, 550 nM SYK-substrate, and 100 nM ATP diluted in a buffer containing 50 mM Tris pH 7.5, 5 mM MgCl2, and 1 mM DTT. The reaction is allowed to proceed for 1 hour at room temperature. The quench buffer contains 100 mM Tris pH 7.5, 300 mM NaCl2, 20 mM EDTA, 0.02% Brij35, and 0.5% BSA. The detection reagents are added to the reaction mixture at the following dilutions-1:500 for Eu-W1024-PY100 and 1:250 for SA-APC. The kinase reaction is terminated by the addition of 50 μL quench buffer containing the detection reagents. […] Detection of the phosphorlated substrate in the absence and presence of inhibitors is measured in the TR-FRET instrument, Analyst HT (Molecular Probes, Sunnyvale, Calif.) and the condition for measurements are set up using CriterionHost Release 2.0 (Molecular Probes, Sunnyvale, Calif.). […] Inhibition of SYK-tyrosine kinase activity is calculated as the maximum response observed in the presence of inhibitor, compared to that in the absence of inhibitor. […]

The next assay addresses T2, JAK1 (Homo sapiens, UniProt P23458).
T2 construct: 5 μl of catalytic domain recombinant Kinase enzyme+Tyr peptide substrate (Invitrogen, CA); purchased Invitrogen
Description: Z'-LYTE kinase assay JAK1. The class given is biochemical. Summed up:
(§1)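 In duplicate wells, each test molecule (1% final DMSO) is incubated with recombinant kinase catalytic domain, Tyr6 peptide substrate and ATP for one hour at room temperature; a site-specific protease is then added for another hour before fluorescence reading.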

A further assay concerns the target T3, JAK2 (Homo sapiens, UniProt O60674).
T3 construct: 5 μl of catalytic domain recombinant Kinase enzyme+Tyr peptide substrate (Invitrogen, CA); purchased Invitrogen
Briefly: Z'-LYTE kinase assay JAK2. The format is biochemical. The procedure, abridged: as §1

The next assay addresses T4, JAK3 (Homo sapiens, UniProt P52333).
T4 construct: 5 μl of catalytic domain recombinant Kinase enzyme+Tyr peptide substrate (Invitrogen, CA); purchased Invitrogen
Description: Z'-LYTE kinase assay JAK3. The class given is biochemical. The procedure, abridged: as §1

Assay [3] concerns JAK1/3 signaling to STAT6 in Ramos B cells. Description: IL4 stimulation of JAK1/3 signaling to STAT6 in Ramos B cells (pSTAT6 Y641, FACS). The format is cell-based. The note with it: Homo sapiens; for inhibition at 0.2 µM: 0.2 uM compound, read-out: IL-4/STAT6 in Ramos Percent Inhibition at 0.2 uM; for inhibition at 1 µM: 1.0 uM compound, read-out: IL-4/STAT6 in Ramos Percent Inhibition at 1.0 uM. The procedure, abridged: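 Phospho-STAT6 Y641 was measured by FACS using a PE-labelled antibody after fixation (2% paraformaldehyde) and methanol permeabilization. Before this, Ramos cells were exposed to compound for 1 h, then to 15 ng IL4 for 15 min.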

Assay [4] deals with JAK1/3 signaling to STAT5 in primary T cells. Description: IL2 stimulation of JAK1/3 signaling to STAT5 in primary T cells (pSTAT5 Y694, FACS). The format is cell-based. As to conditions: T-cell; for inhibition at 0.2 µM: 0.2 uM compound, read-out: IL-2/STAT5 Percent Inhibition at 0.2 uM; for inhibition at 1 µM: 1.0 μM compound, read-out: IL-2/STAT5 Percent Inhibition at 1.0 μM.

The next assay concerns the target T5, TYK2 (Homo sapiens, UniProt P29597).
T5 construct: 5 μl of catalytic domain recombinant Kinase enzyme+Tyr peptide substrate (Invitrogen, CA); purchased Invitrogen
T5 sequence (P29597 897-1176 limits assumed): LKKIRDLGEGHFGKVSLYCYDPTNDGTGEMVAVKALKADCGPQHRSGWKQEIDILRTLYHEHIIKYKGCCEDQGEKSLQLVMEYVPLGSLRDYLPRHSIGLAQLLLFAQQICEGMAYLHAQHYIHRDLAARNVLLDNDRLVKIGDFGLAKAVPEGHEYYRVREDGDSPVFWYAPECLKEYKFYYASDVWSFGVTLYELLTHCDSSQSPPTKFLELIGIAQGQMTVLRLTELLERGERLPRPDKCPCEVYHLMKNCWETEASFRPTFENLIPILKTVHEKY
Briefly: Z'-LYTE kinase assay TYK2. The format is biochemical. The procedure, abridged:
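IC50 derived by 4-parameter logistic fit of percent substrate phosphorylation relative to uninhibited wells. Tyr6 peptide phosphorylated by recombinant TYK2 catalytic domain for 1 h at room temperature (1% DMSO), cleaved by development protease 1 h, FRET emission ratio 445/520 nm.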

T2 sequence (P23458 875-1153 limits assumed): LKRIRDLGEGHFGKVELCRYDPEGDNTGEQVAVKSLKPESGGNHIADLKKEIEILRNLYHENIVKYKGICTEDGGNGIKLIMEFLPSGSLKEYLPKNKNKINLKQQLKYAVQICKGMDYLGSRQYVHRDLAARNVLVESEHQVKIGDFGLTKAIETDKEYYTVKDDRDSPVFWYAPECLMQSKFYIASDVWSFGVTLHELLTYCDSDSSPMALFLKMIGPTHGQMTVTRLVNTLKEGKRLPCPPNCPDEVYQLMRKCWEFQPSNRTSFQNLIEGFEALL
T3 sequence (O60674 849-1124 limits assumed): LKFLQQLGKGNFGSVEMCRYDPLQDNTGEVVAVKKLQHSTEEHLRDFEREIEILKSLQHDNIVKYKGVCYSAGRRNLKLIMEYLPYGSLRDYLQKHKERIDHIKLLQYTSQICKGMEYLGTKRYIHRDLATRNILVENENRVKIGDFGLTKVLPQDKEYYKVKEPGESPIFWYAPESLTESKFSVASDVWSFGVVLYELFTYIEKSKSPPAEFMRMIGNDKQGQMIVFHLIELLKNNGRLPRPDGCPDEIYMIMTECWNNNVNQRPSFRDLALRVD
T4 sequence (P52333 822-1111 limits assumed): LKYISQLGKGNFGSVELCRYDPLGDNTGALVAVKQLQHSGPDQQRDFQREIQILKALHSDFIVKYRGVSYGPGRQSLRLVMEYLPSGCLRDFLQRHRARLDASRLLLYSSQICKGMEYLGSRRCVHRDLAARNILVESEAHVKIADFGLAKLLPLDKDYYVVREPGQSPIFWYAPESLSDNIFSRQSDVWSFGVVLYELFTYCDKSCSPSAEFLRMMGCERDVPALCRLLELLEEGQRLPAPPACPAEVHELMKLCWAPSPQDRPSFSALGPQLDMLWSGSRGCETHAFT

For the compound `C[C@H]1CCN(C(=O)CC#N)C[C@H]1N(C)c1ncnc2[nH]ccc12` [CP-690,550], the “markers of allogeneic response (interferon gamma)” value in assay [1] was “can be reduced”.

A word on the IC50: it is the concentration that gives 50% inhibition. As for `CC(=O)N1CCN(c2ccc(Nc3ccc(C(N)=O)c(NC4CCC4)n3)cc2)CC1` [Example 1, 6-(4-(4-acetylpiperazin-1-yl)phenylamino)-2-(cyclobutylamino)nicotinamide], the IC50 is over 1000 nM in assay [2], 100 to 1000 nM against JAK1, 100 to 1000 nM on JAK2 and 100 to 1000 nM at JAK3.

Turning to `NC(=O)c1cnc(Nc2cccc(OCCN3CCOCC3)c2)cc1N[C@H](CO)c1ccccc1` [Example 230], the IC50 in assay [2] was over 1000 nM; at JAK1, over 1000 nM; against JAK2 it was 100 to 1000 nM; against JAK3 it was 1 to 10 nM.

Take `CC(=O)N1CCN(c2ccc(Nc3cc(N[C@H](CO)c4ccccc4)c(C(N)=O)cn3)cc2)CC1` [Example 231]: the IC50 is over 1000 nM in assay [2], over 1000 nM at JAK1, 100 to 1000 nM against JAK2 and 1 to 10 nM against JAK3.

Regarding `CC(=O)N1CCN(c2ccc(Nc3cc(NCc4cccc(F)c4F)c(C(N)=O)cn3)cc2)CC1` [Example 256, 6-(4-(4-acetylpiperazin-1-yl)phenylamino)-4-(2,3-difluorobenzylamino)nicotinamide], the inhibition at 0.2 µM in assay [3] amounted to 37%; in assay [4] it was 69%. Further, the figures for the inhibition at 1 µM in assay [3] and in assay [4] were 64% and 100%, respectively. Also, the IC50 at JAK1 is 100 to 1000 nM; against JAK2 it was 10 to 100 nM; against JAK3, 1 to 10 nM; against TYK2, 100 to 1000 nM.

As to `NC(=O)c1cnc(Nc2ccc(OCCN3CCCC3)cc2)cc1NCc1ccccc1` [Example 428, 4-(benzylamino)-6-(4-(2-(pyrrolidin-1-yl)ethoxy)phenylamino)nicotinamide], the inhibition at 0.2 µM in assay [3] was determined as 33%; in assay [4], 56%. For the same compound, the figures for the inhibition at 1 µM in assay [3] and in assay [4] were 46% and 84%, respectively. Further, the half-maximal inhibitory concentration (IC50) is over 1000 nM on JAK1, 100 to 1000 nM on JAK2, 1 to 10 nM at JAK3 and over 1000 nM at TYK2.

Consider `NC(=O)c1cnc(Nc2ccc(OCCN3CCOCC3)cc2)cc1NCc1ccccc1` [Example 429, 4-(benzylamino)-6-(4-(2-morpholinoethoxyl)phenylamino)nicotinamide], for which the inhibition at 0.2 µM came to 19% in assay [3] and 60% in assay [4]. The results for the inhibition at 1 µM in assay [3] and in assay [4] were 33% and 77%, respectively. Moreover, the 50% inhibitory concentration (IC50) at JAK1 is 100 to 1000 nM; against JAK2, 100 to 1000 nM; at JAK3 it was 1 to 10 nM; on TYK2, over 1000 nM.
